Laboratory results taken from paper PMC10746543, “Design principles for cyclin K molecular glue degraders” (Nature Chemical Biology, 2023).
Several values for one entry are separate records, joined by “and”; a condition that tells them apart may be missing. Equal values may be shown once. Read-outs that look alike come from different tables or passages of the source.

What was measured:
HEK293T cells = test: Drug sensitivity assay (CellTiter-Glo viability) with or without MLN4924 pretreatment; format: cell-based, human; details: for Toxicity rescue: MLN4924-mediated cytotoxicity rescue, 10 µM used where n.d.
Method in brief: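 Viability of HEK293T–Cas9 cells was compared after 3-day drug treatment with or without 100 nM MLN4924 pretreatment (2 h, versus DMSO). Values are CellTiter-Glo signals relative to DMSO controls.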

[1] = system: cyclin K–eGFP degradation reporter; test: Cyclin K reporter stability analysis (dual-color cyclin K–eGFP reporter); format: cell-based, human; details: for reporter assay signal (normalized): replicates
Method in brief: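 Values reflect cyclin K–eGFP levels after a 5 h exposure, expressed as the green-to-red fluorescence ratio and scaled to three vehicle-treated controls. Measurements came from HEK293T–Cas9 reporter cells by flow cytometry.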

CDK12–cyclin K and DDB1 = biological target: T1, CDK12–cyclin K and DDB1 (Homo sapiens, UniProt Q16531+Q9NYV4, K965R); test: TR-FRET ternary complex formation assay (compound titration); format: binding; details: for TR-FRET signal at compound concentration: replicate titrations
T1 construct: His6–CDK12 (a.a. 713–1,052); full-length or beta-propeller B domain deletion (ΔBPB: a.a. 396–705 deleted) constructs of His6–DDB1ΔBPB, StrepII–Avi–DDB1, or His6–Spy–DDB1; made in house; host or cells: Trichoplusia ni High Five insect cells (baculovirus)
T1 sequence (Q9NYV4 713-1052 K965R): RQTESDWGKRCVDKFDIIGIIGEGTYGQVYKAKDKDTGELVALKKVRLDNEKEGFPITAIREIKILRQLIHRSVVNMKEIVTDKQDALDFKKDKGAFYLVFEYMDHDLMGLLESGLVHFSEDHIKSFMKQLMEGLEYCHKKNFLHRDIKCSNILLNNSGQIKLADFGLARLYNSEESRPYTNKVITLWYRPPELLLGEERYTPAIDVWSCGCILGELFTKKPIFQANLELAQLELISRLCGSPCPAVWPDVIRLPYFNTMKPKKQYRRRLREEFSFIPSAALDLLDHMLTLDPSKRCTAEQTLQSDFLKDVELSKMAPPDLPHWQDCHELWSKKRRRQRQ
T1 sequence (O75909 1-267 partner): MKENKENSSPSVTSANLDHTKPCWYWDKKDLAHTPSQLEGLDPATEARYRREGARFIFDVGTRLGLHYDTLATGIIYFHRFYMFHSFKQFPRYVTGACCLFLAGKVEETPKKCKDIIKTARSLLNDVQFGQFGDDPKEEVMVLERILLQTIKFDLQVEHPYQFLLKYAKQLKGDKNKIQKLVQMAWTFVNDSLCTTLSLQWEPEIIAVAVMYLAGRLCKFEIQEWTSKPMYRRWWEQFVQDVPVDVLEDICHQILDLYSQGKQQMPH
T1 sequence (Q16531 whole entry): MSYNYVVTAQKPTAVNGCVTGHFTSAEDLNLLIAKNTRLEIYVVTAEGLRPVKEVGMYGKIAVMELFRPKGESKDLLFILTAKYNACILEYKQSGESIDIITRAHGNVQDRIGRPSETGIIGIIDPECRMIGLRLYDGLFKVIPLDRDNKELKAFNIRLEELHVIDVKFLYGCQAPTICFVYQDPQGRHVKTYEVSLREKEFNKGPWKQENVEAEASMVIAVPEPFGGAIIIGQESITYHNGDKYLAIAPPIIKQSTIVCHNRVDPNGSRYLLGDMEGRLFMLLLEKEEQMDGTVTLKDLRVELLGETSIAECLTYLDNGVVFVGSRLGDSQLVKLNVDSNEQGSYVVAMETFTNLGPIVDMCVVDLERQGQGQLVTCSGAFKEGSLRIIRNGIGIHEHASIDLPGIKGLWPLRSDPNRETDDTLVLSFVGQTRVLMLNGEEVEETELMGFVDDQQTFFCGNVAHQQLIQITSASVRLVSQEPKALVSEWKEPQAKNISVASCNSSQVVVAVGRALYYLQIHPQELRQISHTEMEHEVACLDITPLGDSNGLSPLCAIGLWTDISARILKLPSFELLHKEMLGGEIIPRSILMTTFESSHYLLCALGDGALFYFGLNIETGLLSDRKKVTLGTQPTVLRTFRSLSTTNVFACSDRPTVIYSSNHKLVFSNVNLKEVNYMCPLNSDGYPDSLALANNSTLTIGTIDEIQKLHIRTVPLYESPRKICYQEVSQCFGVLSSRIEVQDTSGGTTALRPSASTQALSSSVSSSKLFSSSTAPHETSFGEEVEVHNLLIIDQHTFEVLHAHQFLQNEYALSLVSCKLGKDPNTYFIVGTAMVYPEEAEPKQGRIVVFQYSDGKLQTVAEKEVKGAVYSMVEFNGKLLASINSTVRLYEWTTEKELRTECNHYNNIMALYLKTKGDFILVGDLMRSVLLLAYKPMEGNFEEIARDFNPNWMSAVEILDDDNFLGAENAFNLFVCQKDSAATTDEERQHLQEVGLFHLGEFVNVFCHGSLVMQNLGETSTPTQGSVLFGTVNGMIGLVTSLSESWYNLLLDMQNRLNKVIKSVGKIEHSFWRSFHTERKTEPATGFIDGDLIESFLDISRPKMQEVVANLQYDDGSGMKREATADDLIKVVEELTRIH
Method in brief: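 Delayed (70 μs) time-resolved read; FRET computed as 520 nm over 490 nm emission.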

Compound: CC[C@H](CO)Nc1nc(NCc2ccc(-c3ccccn3)c(F)c2)c2ncn(C(C)C)c2n1 [DS24]
- EC50 (HEK293T cells; Homo sapiens, HEK-293T, Supplementary Table 2, HEK293T viability, 72 h, compound alone, read-out: Cellular assays EC50): 0.794 µM
- Toxicity rescue (HEK293T cells; Supplementary Table 2): 270%
- DC50 ([1]; source data sheet correlations, read-out: DC50): 0.172 µM
- TR-FRET signal at compound concentration (CDK12–cyclin K and DDB1; compound concentration 0.468 nM): 0.1746 and 0.2408
- TR-FRET signal at compound concentration (CDK12–cyclin K and DDB1; compound concentration 2.16 nM): 0.2584 and 0.2684
- TR-FRET signal at compound concentration (CDK12–cyclin K and DDB1; compound concentration 3.6 nM): 0.3148 and 0.3094
- TR-FRET signal at compound concentration (CDK12–cyclin K and DDB1; compound concentration 7.92001 nM): 0.4213 and 0.4118
- TR-FRET signal at compound concentration (CDK12–cyclin K and DDB1; compound concentration 15.84 nM): 0.6123 and 0.5731
- TR-FRET signal at compound concentration (CDK12–cyclin K and DDB1; compound concentration 30.96 nM): 1.004 and 0.9206
- TR-FRET signal at compound concentration (CDK12–cyclin K and DDB1; compound concentration 62.6401 nM): 1.811 and 1.633
- TR-FRET signal at compound concentration (CDK12–cyclin K and DDB1; compound concentration 125.28 nM): 2.96 and 2.707
- TR-FRET signal at compound concentration (CDK12–cyclin K and DDB1; compound concentration 244.8 nM): 3.542 and 3.534
- TR-FRET signal at compound concentration (CDK12–cyclin K and DDB1; compound concentration 993.601 nM): 3.814 and 3.947
- TR-FRET signal at compound concentration (CDK12–cyclin K and DDB1; compound concentration 2001.6 nM): 3.863 and 4.055
- EC50 (CDK12–cyclin K and DDB1; in vitro complex formation, 50 nM CDK12–cyclin K, 100 nM DDB1, text and figures, read-out: TR-FRET EC50): 0.078 ± 0.002 µM
- EC50 (CDK12–cyclin K and DDB1; sheet MOESM7, read-out: log TR-FRET EC50 (converted)): 0.0782 µM
- EC50 (CDK12–cyclin K and DDB1; source data sheet correlations, read-out: TR-FRET EC50): 0.0782 µM

Compound: CCc1cnn2c(NCc3ccc[n+]([O-])c3)cc(N3CCCC[C@H]3CCO)nc12 [Dinaciclib]
- viability assay signal (normalized) (HEK293T cells; 5 nM, + MLN4924): 0.8664 and 0.8028
- viability assay signal (normalized) (HEK293T cells; 5 nM, without MLN4924): 0.9657 and 1.0645
- viability assay signal (normalized) (HEK293T cells; 10.7 nM, + MLN4924): 0.7659 and 0.6765
- viability assay signal (normalized) (HEK293T cells; 10.7 nM, without MLN4924): 0.9934 and 0.9758
- viability assay signal (normalized) (HEK293T cells; 22.9 nM, + MLN4924): 0.3817 and 0.3517
- viability assay signal (normalized) (HEK293T cells; 22.9 nM, without MLN4924): 0.3511 and 0.381
- viability assay signal (normalized) (HEK293T cells; 48.9 nM, + MLN4924): 0.2784 and 0.2759
- viability assay signal (normalized) (HEK293T cells; 48.9 nM, without MLN4924): 0.2851 and 0.2898
- viability assay signal (normalized) (HEK293T cells; 105 nM, + MLN4924): 0.2848 and 0.2647
- viability assay signal (normalized) (HEK293T cells; 105 nM, without MLN4924): 0.2976 and 0.3085
- viability assay signal (normalized) (HEK293T cells; 224 nM, + MLN4924): 0.2797 and 0.277
- viability assay signal (normalized) (HEK293T cells; 224 nM, without MLN4924): 0.291 and 0.2867
- viability assay signal (normalized) (HEK293T cells; 478 nM, + MLN4924): 0.2746 and 0.2757
- viability assay signal (normalized) (HEK293T cells; 478 nM, without MLN4924): 0.3016 and 0.2883
- viability assay signal (normalized) (HEK293T cells; 2190 nM, + MLN4924): 0.2646 and 0.2589
- viability assay signal (normalized) (HEK293T cells; 2190 nM, without MLN4924): 0.2893 and 0.2745
- viability assay signal (normalized) (HEK293T cells; 4680 nM, + MLN4924): 0.2516 and 0.2662
- viability assay signal (normalized) (HEK293T cells; 4680 nM, without MLN4924): 0.2682 and 0.2734
- viability assay signal (normalized) (HEK293T cells; 10000 nM, + MLN4924): 0.2413 and 0.2482
- viability assay signal (normalized) (HEK293T cells; 10000 nM, without MLN4924): 0.239 and 0.2604
- Toxicity rescue (HEK293T cells; Supplementary Table 2): -12%
- reporter assay signal (normalized) ([1]; 5 nM): 0.9772 and 0.948
- reporter assay signal (normalized) ([1]; 10.7 nM): 0.9389 and 0.9407
- reporter assay signal (normalized) ([1]; 22.9 nM): 0.9927 and 0.9745
- reporter assay signal (normalized) ([1]; 48.9 nM): 0.9927 and 0.9772
- reporter assay signal (normalized) ([1]; 105 nM): 0.9863 and 0.9964
- reporter assay signal (normalized) ([1]; 224 nM): 1.014 and 1.0155
- reporter assay signal (normalized) ([1]; 478 nM): 0.99 and 1.01
- reporter assay signal (normalized) ([1]; 2190 nM): 0.9881 and 0.9945
- reporter assay signal (normalized) ([1]; 4680 nM): 1.022 and 0.99
- reporter assay signal (normalized) ([1]; 10000 nM): 1.044 and 1.03
- cyclin K reporter degradation, result in words ([1]; HEK293T): non-degrading
- DC50 ([1]; read-out: Cellular assays DC50, Supplementary Table 2, HEK293T cycK-eGFP reporter, 5 h): > 10 µM
- TR-FRET signal at compound concentration 0.468 nM (CDK12–cyclin K and DDB1; compound concentration 0.468 nM, raw replicate titration data): 0.1026 and 0.1033
- TR-FRET signal at compound concentration 2.16 nM (CDK12–cyclin K and DDB1; compound concentration 2.16 nM, raw replicate titration data): 0.1211 and 0.1202
- TR-FRET signal at compound concentration 3.6 nM (CDK12–cyclin K and DDB1; compound concentration 3.6 nM, raw replicate titration data): 0.158 and 0.1569
- TR-FRET signal at compound concentration 4.68 nM (CDK12–cyclin K and DDB1; compound concentration 4.68 nM, raw replicate titration data): 0.141 and 0.164
- TR-FRET signal at compound concentration 7.92001 nM (CDK12–cyclin K and DDB1; compound concentration 7.92001 nM, raw replicate titration data): 0.229 and 0.2182
- TR-FRET signal at compound concentration 15.84 nM (CDK12–cyclin K and DDB1; compound concentration 15.84 nM, raw replicate titration data): 0.3288 and 0.3136
- TR-FRET signal at compound concentration 21.6 nM (CDK12–cyclin K and DDB1; compound concentration 21.6 nM, raw replicate titration data): 0.2804 and 0.3137
- TR-FRET signal at compound concentration 30.96 nM (CDK12–cyclin K and DDB1; compound concentration 30.96 nM, raw replicate titration data): 0.3522 and 0.3143
- TR-FRET signal at compound concentration 36 nM (CDK12–cyclin K and DDB1; compound concentration 36 nM, raw replicate titration data): 0.3155 and 0.3474
- TR-FRET signal at compound concentration 62.6401 nM (CDK12–cyclin K and DDB1; compound concentration 62.6401 nM, raw replicate titration data): 0.2879 and 0.2897
- TR-FRET signal at compound concentration 79.2001 nM (CDK12–cyclin K and DDB1; compound concentration 79.2001 nM, raw replicate titration data): 0.2612 and 0.2943
- TR-FRET signal at compound concentration 125.28 nM (CDK12–cyclin K and DDB1; compound concentration 125.28 nM, raw replicate titration data): 0.2755 and 0.2904
- TR-FRET signal at compound concentration 158.4 nM (CDK12–cyclin K and DDB1; compound concentration 158.4 nM, raw replicate titration data): 0.2643 and 0.2881
- TR-FRET signal at compound concentration 244.8 nM (CDK12–cyclin K and DDB1; compound concentration 244.8 nM, raw replicate titration data): 0.2809 and 0.2743
- TR-FRET signal at compound concentration 309.6 nM (CDK12–cyclin K and DDB1; compound concentration 309.6 nM, raw replicate titration data): 0.2462 and 0.2819
- TR-FRET signal at compound concentration 626.401 nM (CDK12–cyclin K and DDB1; compound concentration 626.401 nM, raw replicate titration data): 0.2417 and 0.2805
- TR-FRET signal at compound concentration 993.601 nM (CDK12–cyclin K and DDB1; compound concentration 993.601 nM, raw replicate titration data): 0.2627 and 0.2615
- TR-FRET signal at compound concentration 1252.8 nM (CDK12–cyclin K and DDB1; compound concentration 1252.8 nM, raw replicate titration data): 0.2431 and 0.2774
- TR-FRET signal at compound concentration 2001.6 nM (CDK12–cyclin K and DDB1; compound concentration 2001.6 nM, raw replicate titration data): 0.2535 and 0.232
- TR-FRET signal at compound concentration 2448 nM (CDK12–cyclin K and DDB1; compound concentration 2448 nM, raw replicate titration data): 0.2678 and 0.2721
- TR-FRET signal at compound concentration 9936.01 nM (CDK12–cyclin K and DDB1; compound concentration 9936.01 nM, raw replicate titration data): 0.2509 and 0.2771
- TR-FRET signal at compound concentration 20016 nM (CDK12–cyclin K and DDB1; compound concentration 20016 nM, raw replicate titration data): 0.2402 and 0.253
